For assay [1], the system named is NCI-H1975 cells (EGFR T790M L858R). The assay is described as follows: EGFR-SOS cellular inhibition assay (CellTiter-Glo, 3D). In kind it is cell-based. The following applies: Homo sapiens.
Assay [2] concerns MIA PaCa-2 cells (K-Ras G12C). The assay is described as follows: Ras-SOS cellular growth inhibition assay (CellTiter-Glo, 3D). It is filed as cell-based. The following applies: Homo sapiens. A digest of the protocol: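 MIA PaCa-2 cells grown in ultra-low-attachment plates (3D) in DMEM/Ham's F12 with 10% FCS and 2.5% horse serum, treated the day after seeding with a 9-point 3-fold compound series for about 5 days. Viability by CellTiter-Glo luminescence; IC50 from four-parameter fit.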

Another assay deals with SOS1 (Homo sapiens (Human), UniProt Q07889). The assay is described as follows: Ras-SOS interaction assay (HTRF). In kind it is biochemical.
Chain of SOS1 (Q07889 564-1049): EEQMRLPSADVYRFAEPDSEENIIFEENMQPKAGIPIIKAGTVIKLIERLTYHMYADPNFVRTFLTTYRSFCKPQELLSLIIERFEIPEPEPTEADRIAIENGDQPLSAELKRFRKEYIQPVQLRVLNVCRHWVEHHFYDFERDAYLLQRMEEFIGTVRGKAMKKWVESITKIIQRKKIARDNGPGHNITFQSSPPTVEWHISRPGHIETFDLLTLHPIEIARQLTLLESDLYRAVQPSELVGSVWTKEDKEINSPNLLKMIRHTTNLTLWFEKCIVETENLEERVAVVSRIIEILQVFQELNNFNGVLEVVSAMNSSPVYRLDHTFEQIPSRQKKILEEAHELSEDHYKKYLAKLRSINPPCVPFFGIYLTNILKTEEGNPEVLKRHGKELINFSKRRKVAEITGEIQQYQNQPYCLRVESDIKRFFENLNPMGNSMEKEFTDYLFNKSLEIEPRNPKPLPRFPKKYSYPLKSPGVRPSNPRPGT
[3] abbreviates: 120 h, NCI-H1975, 3D proliferation, about 5 days, read-out: Bio-Cell-Prolif-3D (H1975 IC50).
Where [4] appears, read: NCI-H1975, EGFR T790M L858R, read-out: IC50 in inhibiting growth of NCI-H1975 cell line.
Where [5] appears, read: MIA PaCa-2, 120 h, MIA PaCa-2, 3D proliferation, about 5 days, read-out: Bio-Cell-Prolif-3D (MiaPaca2 IC50).
Where [6] appears, read: MIA PaCa-2, MIA PaCa-2, read-out: IC50 in inhibiting MIA PaCa-2 cell growth.
Where [7] appears, read: K-RasG13D utilized, read-out: IC50 inhibition of SOS.
[8] abbreviates: K-RasG13D, read-out: IC50 value against SOS1.

Where two headings read alike, the source gives them in different places.

As for `Cc1nc(N[C@H](C)c2cccc(C(F)F)c2F)c2cc(S(=O)(=O)C3CCN(C)CC3)c(C#N)nc2n1` [Compound 341, (R)-4-((1-(3-(difluoromethyl)-2-fluorophenyl)ethyl)amino)-2-methyl-6-((1-methylpiperidin-4-yl)sulfonyl)pyrido[2,3-d] pyrimidine-7-carbonitrile], the IC50 was not above 1000 nM in assay [1] (setting [3]); less than 500 nM in assay [1] (setting [4]); not above 1000 nM in assay [2] (setting [5]); less than 500 nM in assay [2] (setting [6]); less than 100 nM at SOS1 (setting [7]); less than 50 nM on SOS1 (setting [8]).
As to `COc1nc2ncnc(N[C@H](C)c3cccc(C(F)(F)C4CCN(C(C)C)CC4)c3)c2cc1N1CCN(C(C)C)CC1` [Compound 421, (R)-N-(1-(3-(difluoro(1-isopropylpiperidin-4-yl)methyl)phenyl)ethyl)-6-(4-isopropylpiperazin-1-yl)-7-methoxypyrido[2,3-d] pyrimidin-4-amine], the IC50 in assay [1] (setting [3]) was not above 1000 nM; in assay [1] (setting [4]), less than 500 nM; in assay [2] (setting [5]) it was not above 1000 nM; in assay [2] (setting [6]) it was less than 500 nM; on SOS1 (setting [7]), less than 100 nM; on SOS1 (setting [8]) it was less than 50 nM.
Consider `Cc1nc(N[C@H](C)c2cccc(C(F)F)c2F)c2cc(C3CCN(C(C)C)CC3)c(OCCN(C)C)nc2n1` [Compound 369, (R)-N-(1-(3-(difluoromethyl)-2-fluorophenyl)ethyl)-7-(2-(dimethylamino)ethoxy)-6-(1-isopropylpiperidin-4-yl)-2-methylpyrido[2,3-d] pyrimidin-4-amine], for which the IC50 in assay [1] (setting [3]) was not above 1000 nM; in assay [2] (setting [5]), 1000 to 10000 nM; at SOS1 (setting [7]), less than 100 nM; on SOS1 (setting [8]) it was less than 50 nM.
`CCN1CCC(c2cc3c(N[C@H](C)c4cccc(C(F)(F)F)c4F)nc(C)nc3nc2OC)CC1` [Compound 288, (R)-6-(1-ethylpiperidin-4-yl)-N-(1-(2-fluoro-3-(trifluoromethyl)phenyl)ethyl)-7-methoxy-2-methylpyrido [2,3-d]pyrimidin-4-amine]: the IC50 in assay [1] (setting [3]) is not above 1000 nM; in assay [1] (setting [4]), less than 500 nM; in assay [2] (setting [5]), not above 1000 nM; in assay [2] (setting [6]), less than 500 nM; at SOS1 (setting [7]), less than 100 nM; at SOS1 (setting [8]), less than 50 nM.
On to `COc1nc2ncnc(N[C@H](C)c3cccc(C(F)F)c3F)c2cc1C1CCN(C(C)C)CC1` [Compound 189, (R)-N-(1-(3-(difluoromethyl)-2-fluorophenyl)ethyl)-6-(1-isopropylpiperidin-4-yl)-7-methoxypyrido[2,3-d]pyrimidin-4-amine], for which the IC50 in assay [1] (setting [3]) was not above 1000 nM; in assay [2] (setting [5]), 1000 to 10000 nM; on SOS1 (setting [7]), less than 100 nM.
Take `Cc1nc(N[C@H](C)c2cccc(C(F)F)c2F)c2cc(C3(C#N)CC3)c(N3CCN(C)CC3)nc2n1` [Compound 295, (R)-1-(4-((1-(3-(difluoromethyl)-2-fluorophenyl)ethyl)amino)-2-methyl-7-(4-methylpiperazin-1-yl)pyrido[2,3-d]pyrimidin-6-yl)cyclopropanecarbonitrile]: the IC50 in assay [1] (setting [3]) was not above 1000 nM; in assay [1] (setting [4]), less than 500 nM; in assay [2] (setting [5]) it was not above 1000 nM; in assay [2] (setting [6]), less than 500 nM; on SOS1 (setting [7]), less than 100 nM; on SOS1 (setting [8]) it was less than 50 nM.
Take `COc1nc2nc(C)nc(N[C@H](C)c3cccc(CC(F)F)c3F)c2cc1C1CCS(=O)(=O)CC1` [Compound 147, (R)-4-(4-((1-(3-(2,2-difluoroethyl)-2-fluorophenyl)ethyl)amino)-7-methoxy-2-methylpyrido[2,3-d]pyrimidin-6-yl)tetrahydro-2H-thiopyran 1,1-dioxide]: the IC50 was not above 1000 nM in assay [1] (setting [3]); less than 500 nM in assay [1] (setting [4]); not above 1000 nM in assay [2] (setting [5]); less than 100 nM at SOS1 (setting [7]); less than 50 nM at SOS1 (setting [8]).
Take `COc1nc2nc(OCC3COC3)nc(N[C@H](C)c3cccc(C(F)F)c3F)c2cc1C1(C#N)CC1` [Compound 278, (R)-1-(4-((1-(3-(difluoromethyl)-2-fluorophenyl)ethyl)amino)-7-methoxy-2-(oxetan-3-ylmethoxy)pyrido [2,3-d]pyrimidin-6-yl)cyclopropane-1-carbonitrile]: the figures for the IC50 (in assay [1] (setting [3]); in assay [2] (setting [5]); on SOS1 (setting [7])) were 1000 to 10000 nM, more than 10000 nM and less than 100 nM, respectively.
As for `CCN1CCC(c2cc3c(N[C@H](C)c4cccc(C(F)(F)F)c4F)ncnc3nc2OC)CC1` [Compound 199, (R)-6-(1-ethylpiperidin-4-yl)-N-(1-(2-fluoro-3-(trifluoromethyl)phenyl)ethyl)-7-methoxypyrido[2,3-d]pyrimidin-4-amine], the half-inhibitory concentration (IC50) in assay [1] (setting [3]) is not above 1000 nM; in assay [1] (setting [4]), less than 500 nM; in assay [2] (setting [5]), not above 1000 nM; in assay [2] (setting [6]), less than 500 nM; at SOS1 (setting [7]) it was less than 100 nM; at SOS1 (setting [8]) it was less than 50 nM.
As for `COCCOc1nc2nc(C)nc(N[C@H](C)c3cccc(C(F)F)c3OCCOC)c2cc1C1CCS(=O)(=O)CC1` [Compound 158, (R)-4-(4-((1-(3-(difluoromethyl)-2-(2-methoxyethoxy)phenyl)ethyl)amino)-7-(2-methoxyethoxy)-2-methylpyrido[2,3-d]pyrimidin-6-yl)tetrahydro-2H-thiopyran 1,1-dioxide], the figures for the 50% inhibitory concentration (IC50) (in assay [1] (setting [3]); in assay [2] (setting [5]); on SOS1 (setting [7])) were 1000 to 10000 nM, not above 1000 nM and less than 100 nM, respectively.
In the case of `COCCOc1nc2nc(C)nc(N[C@H](C)c3cccc(C(F)F)c3F)c2cc1N1CCN(C(C)C)CC1` [Compound 360, (R)-N-(1-(3-(difluoromethyl)-2-fluorophenyl)ethyl)-6-(4-isopropylpiperazin-1-yl)-7-(2-methoxyethoxy)-2-methylpyrido [2,3-d]pyrimidin-4-amine], the half-inhibitory concentration (IC50) in assay [1] (setting [3]) is not above 1000 nM; in assay [1] (setting [4]), less than 500 nM; in assay [2] (setting [5]) it was not above 1000 nM; in assay [2] (setting [6]), less than 500 nM; on SOS1 (setting [7]) it was less than 100 nM; on SOS1 (setting [8]), less than 50 nM.
`Cc1nc(N[C@H](C)c2cccc(C(F)(F)F)c2F)c2cc(N3CCN(C(C)C)CC3)c(Cl)nc2n1` [Compound 387, (R)-7-chloro-N-(1-(2-fluoro-3-(trifluoromethyl)phenyl)ethyl)-6-(4-isopropylpiperazin-1-yl)-2-methylpyrido[2,3-d] pyrimidin-4-amine]: the IC50 in assay [1] (setting [3]) was not above 1000 nM; in assay [1] (setting [4]), less than 500 nM; in assay [2] (setting [5]) it was not above 1000 nM; in assay [2] (setting [6]) it was less than 500 nM; at SOS1 (setting [7]), less than 100 nM; on SOS1 (setting [8]), less than 50 nM.
As for `Cc1nc(N[C@H](C)c2cccc(C(F)(F)F)c2C)c2cc(N3CCS(=O)(=O)CC3)c(Cl)nc2n1` [Compound 390, (R)-4-(7-chloro-2-methyl-4-((1-(2-methyl-3-(trifluoromethyl)phenyl)ethyl)amino)pyrido[2,3-d]pyrimidin-6-yl) thiomorpholine 1,1-dioxide], the IC50 in assay [1] (setting [3]) is not above 1000 nM; in assay [1] (setting [4]), less than 500 nM; in assay [2] (setting [5]), not above 1000 nM; in assay [2] (setting [6]) it was less than 500 nM; on SOS1 (setting [7]), less than 100 nM; at SOS1 (setting [8]) it was less than 50 nM.
Consider `COc1nc2ncnc(N[C@H](C)c3cccc(C(F)F)c3F)c2cc1C1(C(F)F)CC1` [Compound 185, (R)-N-(1-(3-(difluoromethyl)-2-fluorophenyl)ethyl)-6-(1-(difluoromethyl)cyclopropyl)-7-methoxypyrido[2,3-d]pyrimidin-4-amine], for which the concentration for half-maximal inhibition (IC50) in assay [1] (setting [3]) lay within 1000 to 10000 nM; in assay [2] (setting [5]) it was 1000 to 10000 nM; on SOS1 (setting [7]), 100 to 1000 nM.

The values are drawn from US11648254B2 (Kumquat Biosciences Inc., priority 2021, dated 2023).
